Experimental data taken from patent US20100098782A1, “USE OF SODIUM ACID SULFATE AS A DISINFECTANT” (JOHNSONDIVERSEY, INC., priority 2008, published 2010).
“And” between values parts separate entries of the source, which are not always exact repeats. Identical values can stand only once.

What was measured:
[1] = tested on: Escherichia coli, ATCC #11229; test: Modification of the Germicidal and Detergent Sanitizing Action of Disinfectants (A.O.A.C.); assay type: cell-based; details: 4000 ppm, 25° C.
Procedure: The germicidal effectiveness of 4000 ppm of sodium acid sulfate was tested at various levels of pH. The pH of the solutions was adjusted by addition of sodium hydroxide. The test method was A Modification of the Germicidal and Detergent Sanitizing Action of Disinfectants, A.O.A.C., 17th Edition 2000. The test organism was Escherichia coli, ATCC #11229 (560,000 org/ml), which was contacted with the sodium acid sulfate for 10 seconds and 30 seconds at 25° C. The recovery medium was Tryptone Glucose Extract Agar with Asolectin and Tween 80. Phosphate Buffer 0.2M was employed.

[2] = tested on: organisms on freshly killed whole birds (3M Aerobic Count Petrifilm); test: Whole bird carcass dip test, aerobic count; details: for Organisms/Bird: individual birds
Procedure: In order to test the efficacy of the composition of the present invention for use in treating animal carcasses, freshly killed whole birds were dipped and completely immersed in 13 liters of treatment solution for 10 seconds. […] The growth medium was 3M Aerobic Count Petrifilm. The incubation was 2-3 days at 35° C. […] The same test was repeated using commercially available products, […]12, and Eden, comparing these with sodium acid sulfate and sodium acid sulfate in combination with citric acid.

Salmonella enteriditis = test: Antimicrobial effectiveness, suspension contact test; assay type: cell-based
Procedure: In order to determine the antimicrobial effectiveness of the present invention, Salmonella enteriditis at 120,000,000 organisms per milliliter was contacted for 30 seconds, 1 minute, or 2 minutes, with 2,000 ppm SAS, or 4,000 ppm SAS at the indicated pH. The neutralizer was 0.2M Phosphate Buffer, pH 7.0, and the growth medium was 3M Aerobic Count Petrifilm using an incubation time of 4 days at 35° C.

[3] = 2000 ppm SAS, 10 seconds dip, pre 5 bird dip pH 1.60, post pH 1.78
[4] = 2000 ppm SAS, repeated test (Table 5)
[5] = 4000 ppm SAS, 10 seconds dip, pre 5 bird dip pH 1.56, post pH 1.75
[6] = 2000 ppm, pH 1.5, 30 seconds contact
[7] = 2000 ppm, pH 1.5, 2 minutes contact
[8] = 2000 ppm, pH 1.75, 30 seconds contact
[9] = 2000 ppm, pH 1.75, 1 minute contact
[10] = 2000 ppm, pH 2.0, 30 seconds contact
[11] = 2000 ppm, pH 2.0, 1 minute contact
[12] = 2000 ppm, pH 2.0, 2 minutes contact
[13] = 2000 ppm, pH 2.25, 30 seconds contact
[14] = 2000 ppm, pH 2.25, 1 minute contact
[15] = 2000 ppm, pH 2.25, 2 minutes contact
[16] = 2000 ppm, pH 2.5, 30 seconds contact
[17] = 2000 ppm, pH 2.5, 1 minute contact
[18] = 2000 ppm, pH 2.5, 2 minutes contact
[19] = 4000 ppm, pH 1.5, 30 seconds contact
[20] = 4000 ppm, pH 1.75, 30 seconds contact
[21] = 4000 ppm, pH 2.0, 30 seconds contact
[22] = 4000 ppm, pH 2.25, 30 seconds contact
[23] = 4000 ppm, pH 2.25, 1 minute contact
[24] = 4000 ppm, pH 2.25, 2 minutes contact
[25] = 4000 ppm, pH 2.5, 30 seconds contact
[26] = 4000 ppm, pH 2.5, 1 minute contact
[27] = 4000 ppm, pH 2.5, 2 minutes contact

O=S(=O)([O-])O.[Na+] [SAS, sodium acid sulfate]
% Reduction ([1]; pH 1.49, 10 seconds contact): 92.321% | Survivors ([1]; pH 1.49, 10 seconds contact): 43,000,000 org/ml | % Reduction ([1]; pH 1.49, 30 seconds contact): 92.804% | Survivors ([1]; pH 1.49, 30 seconds contact): 40,300,000 org/ml | % Reduction ([1]; pH 1.59, 10 seconds contact): 88.696% | Survivors ([1]; pH 1.59, 10 seconds contact): 63,300,000 org/ml | % Reduction ([1]; pH 1.59, 30 seconds contact): 89.732% | Survivors ([1]; pH 1.59, 30 seconds contact): 57,500,000 org/ml | % Reduction ([1]; pH 1.70, 10 seconds contact): 90.750% | Survivors ([1]; pH 1.70, 10 seconds contact): 51,800,000 org/ml | % Reduction ([1]; pH 1.70, 30 seconds contact): 91.785% | Survivors ([1]; pH 1.70, 30 seconds contact): 46,000,000 org/ml | % Reduction ([1]; pH 1.79, 10 seconds contact): 92.321% | Survivors ([1]; pH 1.79, 10 seconds contact): 43,000,000 org/ml | % Reduction ([1]; pH 1.79, 30 seconds contact): 93.839% | Survivors ([1]; pH 1.79, 30 seconds contact): 34,500,000 org/ml | % Reduction ([1]; pH 1.89, 10 seconds contact): 92.804% | Survivors ([1]; pH 1.89, 10 seconds contact): 40,300,000 org/ml | % Reduction ([1]; pH 1.89, 30 seconds contact): 94.375% | Survivors ([1]; pH 1.89, 30 seconds contact): 31,500,000 org/ml | % Reduction ([1]; pH 1.99, 10 seconds contact): 68.750% | Survivors ([1]; pH 1.99, 10 seconds contact): 175,000,000 org/ml | % Reduction ([1]; pH 1.99, 30 seconds contact): 81.785% | Survivors ([1]; pH 1.99, 30 seconds contact): 102,000,000 org/ml | % Reduction ([1]; pH 2.11, 10 seconds contact): 81.607% | Survivors ([1]; pH 2.11, 10 seconds contact): 103,000,000 org/ml | % Reduction ([1]; pH 2.11, 30 seconds contact): 82.857% | Survivors ([1]; pH 2.11, 30 seconds contact): 96,000,000 org/ml | % Reduction ([1]; pH 2.18, 10 seconds contact): 79.464% | Survivors ([1]; pH 2.18, 10 seconds contact): 115,000,000 org/ml | % Reduction ([1]; pH 2.18, 30 seconds contact): 98.089% | Survivors ([1]; pH 2.18, 30 seconds contact): 107,000,000 org/ml | % Reduction ([1]; pH 2.29, 10 seconds contact): 81.250% | Survivors ([1]; pH 2.29, 10 seconds contact): 105,000,000 org/ml | % Reduction ([1]; pH 2.29, 30 seconds contact): 86.250% | Survivors ([1]; pH 2.29, 30 seconds contact): 77,000,000 org/ml | % Reduction ([1]; pH 2.39, 10 seconds contact): 76.250% | Survivors ([1]; pH 2.39, 10 seconds contact): 133,000,000 org/ml | % Reduction ([1]; pH 2.39, 30 seconds contact): 77.142% | Survivors ([1]; pH 2.39, 30 seconds contact): 128,000,000 org/ml | % Reduction ([1]; pH 2.49, 10 seconds contact): 71.607% | Survivors ([1]; pH 2.49, 10 seconds contact): 159,000,000 org/ml | % Reduction ([1]; pH 2.49, 30 seconds contact): 72.142% | Survivors ([1]; pH 2.49, 30 seconds contact): 156,000,000 org/ml | Average Organisms/Bird [2, 3]: 576,000 Organisms/Bird | Organisms/Bird [2, 3]: 584,000 Organisms/Bird and 536,000 Organisms/Bird and 660,000 Organisms/Bird and 520,000 Organisms/Bird and 580,000 Organisms/Bird | % Reduction ([2]; 2000 ppm SAS, 10 seconds dip, pre 5 bird dip pH 1.60, post pH 1.78, vs no-treatment control): 75.0% | Average Organisms/Bird [2, 4]: 246,400 Organisms/Bird | Organisms/Bird [2, 4]: 556,000 Organisms/Bird and 128,000 Organisms/Bird and 264,000 Organisms/Bird and 88,000 Organisms/Bird and 196,000 Organisms/Bird | % Reduction ([2]; 2000 ppm SAS, repeated test (Table 5), vs wash control): 88.7% | Average Organisms/Bird [2, 5]: 618,400 Organisms/Bird | Organisms/Bird [2, 5]: 396,000 Organisms/Bird and 528,000 Organisms/Bird and 392,000 Organisms/Bird and 476,000 Organisms/Bird and 1,300,000 Organisms/Bird | % Reduction ([2]; 4000 ppm SAS, 10 seconds dip, pre 5 bird dip pH 1.56, post pH 1.75, vs no-treatment control): 73.2% | performance in carcass dip (in words) ([2]; both 2000 ppm and 4000 ppm): perform well | % Reduction (Salmonella enteriditis; [6]): 90.250% and 85.250% | Survivors (Salmonella enteriditis; [6]): 11,700,000 org/ml and 17,700,000 org/ml | % Reduction (Salmonella enteriditis; 2000 ppm, pH 1.5, 1 minute contact): 99.962% and 99.983% | % Reduction (Salmonella enteriditis; [7]): >99.999% | Survivors (Salmonella enteriditis; [7]): 10 org/ml and 20 org/ml | % Reduction (Salmonella enteriditis; [8]): <79.167% | Survivors (Salmonella enteriditis; [8]): >25,000,000 org/ml | % Reduction (Salmonella enteriditis; [9]): <97.917% | Survivors (Salmonella enteriditis; [9]): >25,000,000 org/ml | % Reduction (Salmonella enteriditis; 2000 ppm, pH 1.75, 2 minutes contact): 98.192% and 98.817% | % Reduction (Salmonella enteriditis; [10]): <79.167% | Survivors (Salmonella enteriditis; [10]): >25,000,000 org/ml | % Reduction (Salmonella enteriditis; [11]): <97.917% | Survivors (Salmonella enteriditis; [11]): >25,000,000 org/ml | % Reduction (Salmonella enteriditis; [12]): <97.917% | Survivors (Salmonella enteriditis; [12]): >25,000,000 org/ml | % Reduction (Salmonella enteriditis; [13]): <79.167% | Survivors (Salmonella enteriditis; [13]): >25,000,000 org/ml | % Reduction (Salmonella enteriditis; [14]): <97.917% | Survivors (Salmonella enteriditis; [14]): >25,000,000 org/ml | % Reduction (Salmonella enteriditis; [15]): <97.917% | Survivors (Salmonella enteriditis; [15]): >25,000,000 org/ml | % Reduction (Salmonella enteriditis; [16]): <79.167% | Survivors (Salmonella enteriditis; [16]): >25,000,000 org/ml | % Reduction (Salmonella enteriditis; [17]): <97.917% | Survivors (Salmonella enteriditis; [17]): >25,000,000 org/ml | % Reduction (Salmonella enteriditis; [18]): <97.917% | Survivors (Salmonella enteriditis; [18]): >25,000,000 org/ml | % Reduction (Salmonella enteriditis; [19]): 96.167% and 92.833% | Survivors (Salmonella enteriditis; [19]): 4,600,000 org/ml and 8,600,000 org/ml | % Reduction (Salmonella enteriditis; 4000 ppm, pH 1.5, 1 minute contact): 99.994% and 99.976% | % Reduction (Salmonella enteriditis; 4000 ppm, pH 1.5, 2 minutes contact): >99.999% and 99.997% | % Reduction (Salmonella enteriditis; [20]): 94.250% and 92.917% | Survivors (Salmonella enteriditis; [20]): 6,900,000 org/ml and 8,500,000 org/ml | % Reduction (Salmonella enteriditis; 4000 ppm, pH 1.75, 1 minute contact): 96.667% and 98.417% | % Reduction (Salmonella enteriditis; 4000 ppm, pH 1.75, 2 minutes contact): 98.933% and 98.833% | % Reduction (Salmonella enteriditis; [21]): 83.250% and 84.500% | Survivors (Salmonella enteriditis; [21]): 20,100,000 org/ml and 18,600,000 org/ml | % Reduction (Salmonella enteriditis; 4000 ppm, pH 2.0, 1 minute contact): 94.583% and 97.833% | % Reduction (Salmonella enteriditis; 4000 ppm, pH 2.0, 2 minutes contact): 96.167% and 91.417% | % Reduction (Salmonella enteriditis; [22]): <79.167% | Survivors (Salmonella enteriditis; [22]): >25,000,000 org/ml | % Reduction (Salmonella enteriditis; [23]): <79.167% | Survivors (Salmonella enteriditis; [23]): >25,000,000 org/ml | % Reduction (Salmonella enteriditis; [24]): <79.167% | Survivors (Salmonella enteriditis; [24]): >25,000,000 org/ml | % Reduction (Salmonella enteriditis; [25]): <79.167% | Survivors (Salmonella enteriditis; [25]): >25,000,000 org/ml | % Reduction (Salmonella enteriditis; [26]): <79.167% | Survivors (Salmonella enteriditis; [26]): >25,000,000 org/ml | % Reduction (Salmonella enteriditis; [27]): <79.167% | Survivors (Salmonella enteriditis; [27]): >25,000,000 org/ml | antimicrobial activity (in words) (Salmonella enteriditis; at less than pH 2.5 and, particularly less than 2.0): greatly enhanced
